Experimental data as given in patent US6878690B2, “Compounds and methods” (PharmAxis Pty Ltd., priority 2000, dated 2005).
Several values for one entry are separate records, joined by “and”; a condition that tells them apart may be missing. Equal values may be shown once.

Legend:
[1] = tested on: DTH response to 2,4-dinitrofluorobenzene (DNFB); experiment: Delayed-type hypersensitivity (DTH) response to DNFB, ear swelling; format: in vivo, Balb/C mice; conditions: for Mean percentage decrease in ear swelling in treated animals: versus saline controls; for Mean Difference, Treated: group mean; for Difference (right minus left ear), Treated / Right ear thickness, Treated / Left ear thickness, Treated: individual mice, 24 hours after challenge, monosodium salt; for Right ear thickness, Treated: challenged ear; for Left ear thickness, Treated: control (unchallenged) ear
Description: In the present Example, a murine model of Type IV hypersensitivity or delayed-type hypersensitivity (DTH) response to cutaneous contact with the chemical hapten 2,4-dinitrofluorobenzene (DNFB) (Aldrich Chemical Company Inc, USA) was used as a model to measure the anti-inflammatory effects of compounds of the present invention. Specific pathogen-free 8-12 week old female Balb/C mice, weighing 19-21 g, were sensitised in a similar manner to that described by Klimuk et al., (Klimuk et al., 1999) by applying a solution of DNFB (0.5% in acetone:olive oil (4:1, v/v); 30 microliters,) onto a 2 cm^2 shaved area of the abdomen. After 7 days, the animals were anesthetised with diethyl ether and 8 microliters of DNFB (0.35% in acetone:olive oil (4:1, v/v) was applied to the dorsal and ventral surfaces of the right pinna. Prior to regaining consciousness, the mice were implanted intraperitoneally with Alzet 2001 mini-osmotic pumps (Alza Corp., Palo Alto Calif., USA) containing phosphoric acid mono-[6-(3-hexyloxy-propyl)-3,4,5-trihydroxy-tetrahydro-pyran-2-ylmethyl] ester, sodium salt in normal saline. The dose delivered was 50 mg/kg/day. Control animals for this group received saline delivered in identical mini-osmotic pumps. A second experimental group of mice received phosphoric acid mono-[3-(3,4,5-trihydroxy-6-phosphonooxymethyl-tetrahydro-pyran-2-yl)-propyl] ester disodium salt via one-week delivery Alzet 2001 mini-osmotic pumps implanted intraperitoneally. This compound was delivered at a dose of 40 mg/kg/day. Control animals for this group received saline delivered in identical mini-osmotic pumps. In a third experiment a separate group of mice received (3,4,5-trihydroxy-6-phosphonooxymethyl-tetrahydro-pyran-2-yl)-acetic acid disodium salt via one-week delivery Alzet 2001 mini-osmotic pumps that were placed intraperitoneally. This compound was delivered at 45 mg/kg/day. The control group for this experiment received identical mini-osmotic pumps containing normal saline. In a fourth experiment a group of mice received 3-phenyl-2-[2-(3,4,5-trihydroxy-6-phosphonooxymethyl-tetrahydro-pyran-2-yl)-acetylamino]-propionic acid monosodium salt via one-week delivery Alzet 2001 mini-osmotic pumps that were placed subcutaneously. This compound was delivered at 62 mg/kg/day. The control group for this experiment received identical mini-osmotic pumps containing normal saline. In a fifth experiment a group of mice received hexanoic acid 3-(3,4,5-trihydroxy-6-phosphonooxymethyl-tetrahydro-pyran-2-yl)-propyl ester sodium salt via one-week delivery Alzet 2001 mini-osmotic pumps that were placed subcutaneously. This compound was delivered at 40 mg/kg/day. The control group for this experiment received identical mini-osmotic pumps containing normal saline.
Twenty-four hours after challenge the mice were lightly anesthetised with diethyl ether and the thickness of the left and right pinnae measured (in millimeters) using a dial gauge micrometer (Interapid, Switzerland). Care was taken to measure only the outer two thirds of the ear. The increase in ear thickness initiated by the DTH response was determined by subtracting the measurement of the left ear (untreated) from the right ear (challenged).
In Table 4, values in the columns labeled Left and Right are measurements of ear thickness in millimeters of the control and challenged ears respectively.

[2] = tested on: passively transferred EAE; experiment: Passively transferred EAE induced with concanavalin A stimulated spleen lymphoblasts (Example 24); format: in vivo, Lewis rats; parameters: key to Clinical score - Treated, Mean: 0 = asymptomatic to 5 = hind limb paralysis; conditions: for Clinical score - Treated, Mean: group mean; for Clinical score - Treated: individual rats, scale 0 to 5; for Mean maximum clinical score / DI (disease index): treated group
Description: In a similar type of experiment outlined in Example 20, and in order to study the effect of the agents of the present invention in vivo on a disease caused by T lymphocyte migration into a specific tissue, further experiments were performed in a Lewis rat model of passively transferred EAE. Here, myelin basic protein (MBP)-specific T lymphocytes were generated in spleens of Lewis rats that had been immunised with guinea pig MBP in Freund's complete adjuvant. Thus, in this manner donor T lymphocytes were generated from male 12-20 week old Lewis rats weighing 200 to 250 g. These rats were injected intradermally in a footpad of each hind foot with an emulsion of guinea pig myelin basic protein (MBP; prepared according to the method of Deibler et al., 1972; incorporated herein by reference) in Freund's complete adjuvant (0.1 ml). The adjuvant emulsion was prepared by emulsifying equal volumes of a mixture of 85% light mineral oil (0.8417 g/mL (Sigma)) plus 15% mannide monooleate (Sigma) containing Mycobacterium butyricum (4 mg/ml; Difco) and normal saline containing guinea pig myelin basic protein (0.25 mg/ml). Thus, the total dose per rat was 25 micrograms of MBP and 400 micrograms of M. butyricum. Ten days following injection, the rats were euthanased and the spleens removed aseptically by blunt dissection and placed into mixed lymphocyte culture medium. This medium was prepared in the normal fashion from Dulbecco's Modified Eagle's Medium (DMEM; GIBCO, Grand Island, N.Y.) supplemented with glucose (4 g/L), folic acid (6 mg/L), L-asparagine (36 mg/L), sodium bicarbonate (2 g/L), L-arginine (116 mg/L), L-glutamine (2 mM), sodium pyruvate (1 mM), HEPES (10 mM), 2-mercaptoethanol (5×10^−5 M), penicillin, streptomycin, neomycin, and 10% fetal calf serum. A single cell suspension was prepared from the spleens in the usual manner by gently pushing them through a stainless steel screen. The cells were washed twice and cultured asceptically for 72 hours at 37° C. in a humidified atmosphere containing 5% carbon dioxide at a concentration of 2 million cells per milliliter in the presence of concanavalin A (2 microgram/mL). The cells were collected and washed twice in Hanks balanced salt solution. Cells were resuspended in Hanks balanced salt solution and each recipient animal (10-12 weeks old female Lewis rats; 160-180 g) received 40-42.5 million lymphoblasts by lateral tail vein injection in a volume of 0.5 ml.
In a typical experiment 4-5 recipient rats were anesthetised with diethyl ether and implanted with mini-osmotic pumps (Alzet 2001, Alza Corp., Palo Alto Calif., USA) containing the test compound. A second group of 4 animals, the control group, under ether anesthesia, were implanted with Alzet 2001 pumps containing normal saline. Mini-osmotic pumps were implanted three days after cell transfer. Disease severity (clinical score) was scored on an arbitrary scale of severity ranging from 0 to 5 as follows: 0, asymptomatic; 1, flaccid distal half of tail; 2, entire tail flaccid; 3, ataxia, difficulty in righting reflex; 4, hind limb weakness; 5, hind limb paralysis. Mean maximum clinical scores were calculated and the disease index (DI) for each group was calculated as described in Example 20. The results of these experiments are outlined in Tables 6, 7 and 8.

[3] = 50 mg/kg/day, mini-osmotic pump intraperitoneally
[4] = 40 mg/kg/day, mini-osmotic pump subcutaneously
[5] = 62 mg/kg/day, mini-osmotic pump subcutaneously
[6] = day 4, 62 mg/kg/day subcutaneously

Structure (SMILES): CCCCCCOCCCC1OC(COP(=O)([O-])O)C(O)C(O)C1O.[Na+] (stereo not drawn) [phosphoric acid mono-[6-(3-hexyloxy-propyl)-3,4,5-trihydroxy-tetrahydro-pyran-2-ylmethyl] ester, monosodium salt]
- Mean percentage decrease in ear swelling in treated animals ([1]; 50 mg/kg/day intraperitoneally): Mean percentage decrease in ear swelling in treated animals: 36.7%
- Mean Difference, Treated ([1]; 50 mg/kg/day intraperitoneally, saline control mean 0.098): 0.062 millimeters
- Difference (right minus left ear), Treated [1, 3]: 0.03 millimeters and 0.05 millimeters (2×) and 0.08 millimeters and 0.1 millimeters
- Right ear thickness, Treated [1, 3]: 0.25 millimeters (2×) and 0.26 millimeters and 0.3 millimeters and 0.32 millimeters
- Left ear thickness, Treated [1, 3]: 0.22 millimeters (3×) and 0.21 millimeters and 0.2 millimeters
- Clinical score - Treated, Mean ([2]; day 5, 50 mg/kg/day subcutaneously): 1
- Clinical score - Treated ([2]; day 5, 50 mg/kg/day subcutaneously, monosodium salt, 50 mg/kg/day): 0.5 (2×) and 1 and 2
- Clinical score - Treated, Mean ([2]; day 6, 50 mg/kg/day subcutaneously): 2.75
- Clinical score - Treated ([2]; day 6, 50 mg/kg/day subcutaneously, monosodium salt, 50 mg/kg/day): 3 and 2 (2×) and 4
- Clinical score - Treated, Mean ([2]; day 7, 50 mg/kg/day subcutaneously): 2.5
- Clinical score - Treated ([2]; day 7, 50 mg/kg/day subcutaneously, monosodium salt, 50 mg/kg/day): 2 (3×) and 4
- Clinical score - Treated, Mean ([2]; day 8, 50 mg/kg/day subcutaneously): 2.25
- Clinical score - Treated ([2]; day 8, 50 mg/kg/day subcutaneously, monosodium salt, 50 mg/kg/day): 2 (3×) and 3
- Clinical score - Treated, Mean ([2]; day 9, 50 mg/kg/day subcutaneously): 1.25
- Clinical score - Treated ([2]; day 9, 50 mg/kg/day subcutaneously, monosodium salt, 50 mg/kg/day): 1 (2×) and 1.5 (2×)
- Clinical score - Treated, Mean ([2]; day 10, 50 mg/kg/day subcutaneously): 0.5
- Clinical score - Treated ([2]; day 10, 50 mg/kg/day subcutaneously, monosodium salt, 50 mg/kg/day): 0 (2×) and 1 (2×)
- Mean maximum clinical score ([2]; 50 mg/kg/day subcutaneously, control 4.5): clinical score 3
- DI (disease index) ([2]; 50 mg/kg/day subcutaneously, control DI 67.2): DI - 34.1 Mean maximum

Structure (SMILES): CCCCCC(=O)OCCCC1OC(COP(=O)(O)O)C(O)C(O)C1O.[Na] (stereo not drawn) [hexanoic acid 3-(3,4,5-trihydroxy-6-phosphonooxymethyl-tetrahydro-pyran-2-yl)-propyl ester monosodium salt]
- Mean percentage decrease in ear swelling in treated animals ([1]; 40 mg/kg/day subcutaneously): Mean percentage decrease in ear swelling in treated animals: 47.6%
- Mean Difference, Treated ([1]; 40 mg/kg/day subcutaneously, saline control mean 0.126): 0.066 millimeters
- Difference (right minus left ear), Treated [1, 4]: 0.07 millimeters (2×) and 0.08 millimeters and 0.05 millimeters and 0.06 millimeters
- Right ear thickness, Treated [1, 4]: 0.29 millimeters (3×) and 0.28 millimeters and 0.27 millimeters
- Left ear thickness, Treated [1, 4]: 0.22 millimeters (2×) and 0.21 millimeters (2×) and 0.23 millimeters

Structure (SMILES): O=C(CC1OC(COP(=O)(O)O)C(O)C(O)C1O)NC(Cc1ccccc1)C(=O)[O-].[Na+] (stereo not drawn) [3-phenyl-2-[2-(3,4,5-trihydroxy-6-phosphonooxymethyl-tetrahydro-pyran-2-yl)-acetylamino]-propionic acid monosodium salt]
- Mean percentage decrease in ear swelling in treated animals ([1]; 62 mg/kg/day subcutaneously): Mean percentage decrease in ear swelling in treated animals: 49.3%
- Mean Difference, Treated ([1]; 62 mg/kg/day subcutaneously, saline control mean 0.134): 0.068 millimeters
- Difference (right minus left ear), Treated [1, 5]: 0.11 millimeters and 0.09 millimeters and 0.06 millimeters and 0.04 millimeters (2×)
- Right ear thickness, Treated [1, 5]: 0.33 millimeters and 0.31 millimeters and 0.29 millimeters and 0.25 millimeters (2×)
- Left ear thickness, Treated [1, 5]: 0.22 millimeters (2×) and 0.23 millimeters and 0.21 millimeters (2×)
- Clinical score - Treated, Mean [2, 6]: 0
- Clinical score - Treated [2, 6]: 0
- Clinical score - Treated, Mean ([2]; day 5, 62 mg/kg/day subcutaneously): 0.8
- Clinical score - Treated ([2]; day 5, 62 mg/kg/day subcutaneously, monosodium salt, 62 mg/kg/day): 0 (2×) and 1 (2×) and 2
- Clinical score - Treated, Mean ([2]; day 6, 62 mg/kg/day subcutaneously): 0.9
- Clinical score - Treated ([2]; day 6, 62 mg/kg/day subcutaneously, monosodium salt, 62 mg/kg/day): 0 and 0.5 and 1 (2×) and 2
- Clinical score - Treated, Mean ([2]; day 7, 62 mg/kg/day subcutaneously): 0.7
- Clinical score - Treated ([2]; day 7, 62 mg/kg/day subcutaneously, monosodium salt, 62 mg/kg/day): 0 (2×) and 0.5 and 1 and 2
- Clinical score - Treated, Mean ([2]; day 8, 62 mg/kg/day subcutaneously): 0.7
- Clinical score - Treated ([2]; day 8, 62 mg/kg/day subcutaneously, monosodium salt, 62 mg/kg/day): 0 (2×) and 1 (2×) and 1.5
- Clinical score - Treated, Mean ([2]; day 9, 62 mg/kg/day subcutaneously): 0.4
- Clinical score - Treated ([2]; day 9, 62 mg/kg/day subcutaneously, monosodium salt, 62 mg/kg/day): 0 (3×) and 0.5 and 1
- Clinical score - Treated, Mean ([2]; day 10, 62 mg/kg/day subcutaneously): 0.2
- Clinical score - Treated ([2]; day 10, 62 mg/kg/day subcutaneously, monosodium salt, 62 mg/kg/day): 0 (3×) and 0.5 (2×)
- Mean maximum clinical score ([2]; 62 mg/kg/day subcutaneously, control 1.5): clinical score 1.0
- DI (disease index) ([2]; 62 mg/kg/day subcutaneously, control DI 14.1): DI - 8.13 Mean maximum
